{"source": "paper PMC12040169", "about": "(PLOS Biology, 2025)", "data": [{"assay": "in vitro", "conditions": "human, hela cells, % viability", "units": {"viability at 28.5 h, 10 µM": "%"}, "values": [{"molecule": "Cc1nc(C(=O)N(C)C(C)c2cc3ccccc3o2)nn1-c1ccc(F)cc1", "note": "(stereo not shown) [CBK296657]", "viability at 28.5 h, 10 µM": 108}, {"molecule": "COc1ccc(C(=O)N2CC[C@@H]3NC(=O)[C@H]4C[C@H](NC(=O)C5CCC5)CN4C(=O)[C@H]32)cc1", "note": "[CBK289268]", "viability at 28.5 h, 10 µM": 111}, {"molecule": "O=C(O)Cc1ccc(Oc2ncc(C(F)(F)F)cc2Cl)cc1", "note": "[CBK161657]", "viability at 28.5 h, 10 µM": 104}, {"molecule": "CCNC(=O)Nc1ncc(-c2ccc(Oc3ccccc3)cc2)c2cccnc12", "note": "[CBK070636]", "viability at 28.5 h, 10 µM": 104}, {"molecule": "COc1ccc(Cl)c(NC(=O)NCCN2CCN(c3ccccc3)CC2)c1", "note": "[CBK268899]", "viability at 28.5 h, 10 µM": 90.7}, {"molecule": "CCN(CC)c1ccc(NC(=O)COc2ccccc2)cc1", "note": "[CBK096048]", "viability at 28.5 h, 10 µM": 91.9}, {"molecule": "O=C(NNC(=O)C1CCN(S(=O)(=O)c2ccc(Br)cc2)CC1)NC12CC3CC(CC(C3)C1)C2", "note": "[CBK266907]", "viability at 28.5 h, 10 µM": 94.5}, {"molecule": "Nc1nnc(Sc2nc3ccccc3nc2C(F)(F)F)s1", "note": "[CBK093795]", "viability at 28.5 h, 10 µM": 94.6}, {"molecule": "CCOC(=O)N1CCN(CC(=O)N2c3ccccc3CCc3ccccc32)CC1", "note": "[CBK268744G]", "viability at 28.5 h, 10 µM": 111}, {"molecule": "COc1ccccc1CC(=O)Nc1ccc(OCC(=O)O)cc1", "note": "[CBK264194]", "viability at 28.5 h, 10 µM": 99.1}, {"molecule": "Cc1cn2c(=O)c(C(=O)Nc3ccc(F)c(C(F)(F)F)c3)cnc2s1", "note": "[CBK287713]", "viability at 28.5 h, 10 µM": 77.9}, {"molecule": "Cc1ccc(Cl)cc1NC(=O)c1ccc(NCCN2C(=O)C3C4C=CC(C4)C3C2=O)c([N+](=O)[O-])c1", "note": "(stereo not shown) [CBK268357]", "viability at 28.5 h, 10 µM": 92.2}, {"molecule": "COc1ccc(Cl)cc1NC(=O)CC1NC2CCCCC2NC1=O", "note": "(stereo not shown) [CBK267318]", "viability at 28.5 h, 10 µM": 80.4}, {"molecule": "O=C(c1cc2c(s1)CCC2)N1CCn2c(nnc2C2CC2)C1", "note": "[CBK283770]", "viability at 28.5 h, 10 µM": 96.6}, {"molecule": "CCOc1ccc(N2C(=O)CC(N3CCN(CCc4ccccn4)CC3)C2=O)cc1", "note": "(stereo not shown) [CBK270149]", "viability at 28.5 h, 10 µM": 95.8}, {"molecule": "CN(C)c1ccc(/C=C(\\C#N)c2nn(-c3ccccc3)c(N)c2C#N)cc1[N+](=O)[O-]", "note": "[CBK262532]", "viability at 28.5 h, 10 µM": 83.4}, {"molecule": "COCCNS(=O)(=O)c1cccc2c1CN(C(=O)CC1CCCC1)CC2", "note": "[CBK306982]", "viability at 28.5 h, 10 µM": 101}, {"molecule": "CC(C)c1cc(C(=O)NC2CCN(c3ncccc3C#N)CC2)n(C)n1", "note": "[CBK306975]", "viability at 28.5 h, 10 µM": 87.1}, {"molecule": "CCN(CC)S(=O)(=O)c1csc(C(=O)Nc2cccc([N+](=O)[O-])c2)c1", "note": "[CBK264505]", "viability at 28.5 h, 10 µM": 91.3}, {"molecule": "CSc1nc(-n2nc(C)cc2C)c2c3c(sc2n1)COC(C)(C)C3", "note": "[CBK268906]", "viability at 28.5 h, 10 µM": 89.7}, {"molecule": "C=CCOC(=O)C1=C(C)N=C2SCCC(=O)N2C1c1ccc(SC)cc1", "note": "(stereo not shown) [CBK073405]", "viability at 28.5 h, 10 µM": 93.5}, {"molecule": "N#Cc1ccc(CNC(=O)N2CCc3ccccc3C2)cc1", "note": "[CBK155287]", "viability at 28.5 h, 10 µM": 107}, {"molecule": "COc1ccc(CNC(=O)NC(=O)C2CCN(CCCc3ccc4c(c3)OCO4)CC2)c(OC)c1", "note": "[CBK034875]", "viability at 28.5 h, 10 µM": 100}, {"molecule": "CCOC(=O)c1cnc2c(C)c(Cl)ccc2c1NCCN(C)C", "note": "[CBK265965]", "viability at 28.5 h, 10 µM": 102}, {"molecule": "CC1CCN(S(=O)(=O)c2ccc3c(c2)oc(=O)c2cc(S(=O)(=O)N4CCC(C)CC4)ccc23)CC1", "note": "[CBK266314]", "viability at 28.5 h, 10 µM": 100}, {"molecule": "Cc1nc(CCNC(=O)c2nn(-c3cccc(C(C)C)c3)cc2O)cs1", "note": "[CBK305438]", "viability at 28.5 h, 10 µM": 109}, {"molecule": "O=C(CCCOc1ccccc1)Nc1ccc([N+](=O)[O-])cc1", "note": "[CBK263690]", "viability at 28.5 h, 10 µM": 97.9}, {"molecule": "CC(C)(C)Cc1nnc(N)s1", "note": "[CBK050161]", "viability at 28.5 h, 10 µM": 92.6}, {"molecule": "COc1cc(CN2CCN(S(=O)(=O)c3ccc(F)cc3)CC2)cc(OC)c1O", "note": "[CBK264269G]", "viability at 28.5 h, 10 µM": 103}, {"molecule": "Cc1nccn1CC1(O)CCN(C(=O)CCc2ccccc2F)CC1", "note": "[CBK284689]", "viability at 28.5 h, 10 µM": 96.6}, {"molecule": "O=C(NCc1ccccn1)c1cc(-c2ccc(Cl)cc2)on1", "note": "[CBK116558]", "viability at 28.5 h, 10 µM": 83.8}, {"molecule": "CCCOC1CCCN(c2nccc(-c3cc(C(=O)O)ccn3)n2)C1", "note": "(stereo not shown) [CBK307703]", "viability at 28.5 h, 10 µM": 101}, {"molecule": "CCNC(=O)N1C[C@@H]2OCC(=O)N(Cc3ccccc3)[C@@H]2C1", "note": "[CBK289679]", "viability at 28.5 h, 10 µM": 104}]}, {"assay": "in vitro", "conditions": "human, hela cells, % viability, bulk resorufin, single well", "units": {"viability at 28.5 h, 10 µM": "%"}, "values": [{"molecule": "CS(=O)(=O)c1ccc(-c2ccc3c(c2)COC2(CCN(C(=O)CCCc4ccc(F)cc4)CC2)O3)cc1", "note": "[CBK160586]", "viability at 28.5 h, 10 µM": 92.5}]}]}
